Measurements from patent US11672834B2, “Probiotic and prebiotic compositions, and methods of use thereof for modulation of the microbiome” (Evelo Biosciences, Inc., priority 2014, dated 2023).

What was measured:
[1] = tested on: tumors; settings: oral administration; cited from earlier work
[2] = tested on: Tregs in the large intestine; settings: mouse, in vivo; cited from earlier work
[3] = tested on: Blautia; Lactobacillus johnsonii; test: Sugar fermentation by Blautia versus Lactobacillus johnsonii (pH and optical density, media lacking glucose); type: cell-based
[4] = tested on: C57Bl/6 female mice; settings: mouse, in vivo
From the text: The trillions of organisms forming the microbiome function as an organ system interconnected throughout the body. The possibility that modification of the microbiome in a given physical location may influence the microbiome at other sites in the body (distal augmentation) was investigated. Seven week old C57Bl/6 female mice were acclimatized for 7 days prior to the start of the study by daily handling and shuffling between cages. All mice were housed at three mice per cage in individually vented cages (Thoren, Hazleton, Pa.). At day 0, baseline fresh fecal pellets, and vaginal lavages with 100 μL of sterile double-distilled water were collected and immediately frozen at −80° C. for microbiome analysis. […] Water alone is not expected to influence the microbiome and acted as a negative control. […] The impact of oral vancomycin is therefore expected to be limited to the gastrointestinal tract such that microbiome changes elsewhere in the body (e.g. vagina) would be attributable to distal augmentation. At day 6, fresh fecal pellets and vaginal lavages with 100 μL of sterile double-distilled water were collected and immediately stored at −80° C. for microbiome analysis.
Isolation and sequencing of microbial DNA from the stool and vaginal samples was performed by DNA Genotek (Ottawa, ON, Canada). The V3-V4 region of the 16S ribosomal subunit was amplified with custom PCR primers and sequenced on an Illumina MiSeq to a minimum acceptable read depth of 25,000 sequences per sample. […] These OTU's were then assigned a curated taxonomic label based on the seven level SILVA taxonomy.

[5] = tested on: mice with GVHD; settings: mouse, in vivo
[6] = tested on: serum endotoxin
From the text: FIG. 1 is a graph depicting serum endotoxin levels (EU/ml) over time following treatment with xylose.

[7] = tested on: healthy, adult volunteers; test: Normal human volunteer study of D-xylose: immunology (CRP, cytokines, T-cell markers) and gut microbiome; type: in vivo; settings: for effect on gut microbiome (alpha diversity, community composition): stool 16S, normal individuals
From the text: Blood was collected at pre-specified pre- and post-ingestion time points to evaluate C-reactive protein (CRP), serum cytokines (tumor necrosis factor alpha [TNF-α], interleukin [IL]-2, IL-6, interferon gamma [IFN-γ], and IL-10), and T-cell markers CD3, CD4, CD8, CD25, and FOXP3. Plasma was also stored and may be tested for biomarkers and/or metabolic markers for up to 7 years.
A total of 7 stool samples were expected to be collected for each subject. Evaluation of changes in the gut microbiome were evaluated in stool samples through taxonomic classification, relative and statistical differential abundance analyses by cohort and time point, an alpha diversity analysis calculated using the Shannon diversity index by cohort and time point, a beta diversity analysis using Bray-Curtis dissimilarity and Unifrac distance by subject and time point, and a principal coordinates analysis using the beta diversity data.
Summary statistics (n, mean, standard deviation, median, minimum, and maximum) were presented for serum concentrations of CRP, flow cytometry T-cell markers (CD3, CD4, CD8, CD25, and FOXP3), and cytokines (TNF-α, IL-2, IL-6, IFN-γ, and IL-10) as per their nominal time points.
A total of 344 stool samples were collected in OMNIgene•GUT collection kits and shipped to the GenoFIND laboratory for DNA extraction and V3-V4 16S amplicon sequencing. […] Numerous taxa were identified as differentially abundant, but this finding may be attributable to the relatively small sample sizes of each cohort. […] The impact of xylose on the microbiome under disease conditions remains to be determined.

[8] = Normal human volunteer study of D-xylose: pharmacokinetics (serum and urine D-xylose); type: in vivo; settings: Day 15; 15 mg TID cohort; variability high
Method: Blood and urine were collected at pre-specified pre- and post-ingestion time points to measure D-xylose levels and to characterize the systemic absorption profiles of D-xylose. Serum D-xylose concentrations were summarized by cohort using nominal sample times according to actual amount received using summary statistics (n, coefficient of variation [CV], mean, standard deviation [SD], median, minimum, and maximum). Evidence for the occurrence of steady-state was assessed graphically by comparing the time course of either trough or 2-hour post-ingestion serum concentrations of D-xylose as different levels of D-xylose. Accumulation was assessed by comparing the 2-hour post-first-ingestion serum levels with those observed at Week 2 (Day 15) and Week 4 (Day 28). […] Urine PK parameters for D-xylose levels included Ae(0-t) (cumulative amount of sweetener recovered in urine) and percent sweetener amount excreted over a 5-hour period.

[9] = tested on: anaerobic commensal bacteria; test: Carbon source utilization by commensal bacteria (Biolog PM01/PM02A plates, OD 750 nm); type: cell-based
[10] = tested on: healthy, adult volunteers; settings: human, in vivo, 28 days
Method: D-xylose is a carbon source generally preferred by anaerobic bacteria. […] A parallel, double-blind, 5 cohort escalation food safety study was conducted to examine D-xylose in normal human volunteers. The study was a double-blind, single-center, parallel group study designed to evaluate the tolerability and potential microbiome changes induced by ingestion of D-xylose at 5 different amounts in healthy, adult volunteers enrolled at 1 study center in the United States (US).
Subjects were screened for eligibility within 21 days prior to the first planned ingestion of study sweetener on Day 1 (Baseline). […]
Subjects returned to the study center weekly on Days 8, 15, 22, and 28 for ingestion, tolerability, and compliance evaluations. Safety was evaluated on a continual basis through adverse events (AE) monitoring, clinical laboratory measurements, vital sign monitoring, physical examinations, electrocardiograms (ECGs), telephone follow-up, and electronic subject ingestion diaries. Stool was collected pre-ingestion and at pre-specified time points, and post-ingestion samples were evaluated for changes in the gut microbiome compared with Baseline for all subjects. […]
Safety was evaluated on a continual basis through AE monitoring, clinical laboratory measurements, vital sign monitoring, physical examinations, ECGs, telephone follow-up, and electronic subject ingestion diaries. […]

For Bacteroides, the “responsiveness to checkpoint inhibitor therapy in cancer” value [1] is given as “increases the responsiveness to checkpoint inhibitor therapy in cancer”.
For `CC(=O)O` [acetate], the “numbers of Tregs in the large intestine” value [2] is listed as “restored normal numbers of Tregs in the large intestine”.
With `C[C@H](O)[C@H](O)[C@@H](O)[C@@H](O)C=O` [rhamnose] the “substrate fermentable by Blautia but not lactobacillus” value [3] was “specifically augments Blautia but not lactobacillus”.
For Bifidobacterium, the “responsiveness to checkpoint inhibitor therapy in cancer” value [1] is listed as “increases the responsiveness to checkpoint inhibitor therapy in cancer”.
In the case of `CCC(=O)O` [propionate], the “numbers of Tregs in the large intestine” value [2] is listed as “restored normal numbers of Tregs in the large intestine”.
With `CN[C@H](CC(C)C)C(=O)N[C@H]1C(=O)N[C@@H](CC(N)=O)C(=O)N[C@H]2C(=O)N[C@H]3C(=O)N[C@H](C(=O)N[C@H](C(=O)O)c4cc(O)cc(O)c4-c4cc3ccc4O)[C@H](O)c3ccc(c(Cl)c3)Oc3cc2cc(c3O[C@@H]2O[C@H](CO)[C@@H](O)[C@H](O)[C@H]2O[C@H]2C[C@](C)(N)[C@H](O)[C@H](C)O2)Oc2ccc(cc2Cl)[C@H]1O` [Vancomycin, vancomycin] the “impact on the microbiome of the gut (fecal samples, PCA at family level)” value [4] was “strong impact on the microbiome of the gut”, the “median abundance of bacterial species detected in vaginal samples at day 6 that were not present at day 0” value [4] was “approximately 0.00002%” and the “day 0 to day 6 pattern in vaginal samples (PCA)” value ([4]; po) was “overall difference between the PBS and oral vancomycin groups”.
With `O=C[C@H](O)[C@@H](O)[C@H](O)CO` [xylose] the “substrate fermentable by Blautia but not lactobacillus” value [3] was “specifically augments Blautia but not lactobacillus”, the “Blautia in the intestinal flora” value [5] was “expansion of Blautia in the intestinal flora” and the “survival of mice with GVHD” value [5] was “improved survival of mice with GVHD”. For the same compound, the “basal levels of serum endotoxin” value ([6]; mouse, in vivo) was “reduces basal levels of serum endotoxin”, the “effect on the endotoxin increase caused by cipro” value ([6]; mouse, in vivo) was “counteracts the endotoxin increase” and the “effect on the endotoxin increase caused by enro” value ([6]; mouse, in vivo) was “not”. The “effect on gut microbiome (alpha diversity, community composition)” value [7] was “exerts subtle changes in the gut microbiome”.
In the case of `CCN1CCN(c2cc3c(cc2F)c(=O)c(C(=O)O)cn3C2CC2)CC1` [enrofloxacin, reference compound], the “serum endotoxin levels after antibiotic treatment, recovery” value ([6]; mice, by day 14) is reported as “return to baseline” and the “serum endotoxin levels after antibiotic treatment” value ([6]; mice, measured 2 days after a 5 day course, at day 0) is reported as “leads to an increase in serum endotoxin levels”.
In the case of `O=C[C@H](O)[C@@H](O)[C@H](O)CO` [D-xylose], the accumulation ratio [8] is reported as “approximately 1.9 fold”, the “use as carbon source by bacterial strains” value [9] is reported as “used as a carbon source by several bacterial strains” and the “subjects with at least 1 AE considered related to study sweetener” value [10] is reported as 25.0%. For the same compound, the “serum interferon gamma over time” value ([7]; 2 g and 15 g D-xylose cohorts) was “trend for reduced levels of serum interferon gamma over time”, the “total T-cells or T-cell subsets over time” value ([7]; any D-xylose ingestion amount) was “No consistent or clinically meaningful changes over time” and the “effect on gut microbiome (alpha diversity, community composition)” value [7] was “no apparent significant impact on the intra-sample alpha diversity”.
